According to patent publication US12527753B2, “Cysteamine for the treatment, mitigation and prevention of coronaviral, e.g., SARS-CoV-2, infections” (The Regents of the University of Michigan, priority 2020, dated 2026):
pEC50: −log10 of the molar value. Structures can show the parent of a compound that is named as a salt. Where two headings read alike, the source gives them in different places.

How the values were obtained:
[1] = system: SARS-CoV-2-WA1 strain; assay: Huh7 cellular infectivity assay with SARS-CoV-2 (high content bioimaging); format: cell-based; details: for efficacy in preventing SARS-CoV-2 infection: Huh-7 cells, normalized to infected and uninfected vehicle wells
Procedure: (§1) FIGS. 3A-D. Cysteamine efficacy in the Huh7 cellular infectivity assay with SARS-CoV-2-WA1 strain. Cells are infected at 0.2 MOI and are incubated for 48 hours to allow for the initial infection and propagation to surrounding cells. […] All concentrations of cysteamine (50, 20, 8, 3, 1.5 micromolar) tested were non-cytotoxic indicating an acceptable therapeutic index.
Experiments were conducted during development of embodiments herein using a fully developed high-content screening pipeline to screen approved drugs against SARS Cov-2, the causative agent of COVID-19. A high throughput screen of FDA-approved drugs was conducted to determine the efficacy in a SARS-CoV-2 infectivity assay. This high content bioimaging-based assay has proven to be highly robust and informative, and clearly differentiates between infected and uninfected cells (FIG. 2). This high-content screen identifies individual agents effective in reducing viral infectivity or replication by imaging individual SARS Cov-2 infected cells. A screen of 1,200 compounds was conducted through the validated assay platform. Remdesivir, a viral replication inhibitor, was selected as a positive control, which results in 100% efficacy.
Cysteamine was evaluated for its antiviral effects at 5 doses with 9 replicates at each dose for a total of 45 independent experiments. Automated image analysis was performed to quantitate the number and percentage of infected cells and that was normalized to the infected and vehicle (DMSO) treated wells and the uninfected and vehicle treated wells representing 0-100% efficacy, as shown on the y-axis dose response plot for cysteamine anti-SARS-CoV-2 (FIG. 3).

[2] = system: Huh7 cells; assay: Cytotoxicity in the Huh7 infectivity assay; format: cell-based; details: 50, 20, 8, 3, 1.5 micromolar
Procedure: as §1

[3] = system: HTLV-IIIB strain of HIV-1; details: 100 μM; CEM cells; cited from earlier work
[4] = system: HIV-1 (4 primary isolates and 2 laboratory strains); details: cited from earlier work
[5] = system: epithelial fibroblasts; details: concentrations up to 10 μM; cited from earlier work
[6] = aqueous 0.1% and 0.5% (10 mM and 50 mM); cited from earlier work
[7] = aqueous 0.1% and 0.5%, topical; cited from earlier work
[8] = system: SARS-CoV-2 WA wild type; assay: Virus pre-incubation, plaque formation in TMPRSS cells; format: cell-based; details: Severe acute respiratory syndrome coronavirus 2, 2 h; 5 mM, 120 min incubation

Row | Compound | viral infection relative to the negative control ([1]; 8 micromolar, Huh7 cells, 0.2 MOI, 48 hours, syncytia present) | infected cells / nucleocapsid staining ([1]; 20 micromolar, Huh7 cells, 0.2 MOI, 48 hours) | elimination of SARS-CoV-2 infection ([1]; 50 micromolar, Huh7 cells, 0.2 MOI, 48 hours) [%] | pEC50 ([1]; Huh7 cells, 0.2 MOI, 48 hours, read-out: EC50 (concentration at 50% effect)) | efficacy in preventing SARS-CoV-2 infection [1] [%] | cytotoxicity [2] | inhibition of cytotoxicity [3] [%] | viral inhibition ([4]; 200 μM, lymphocytes) | viral inhibition ([4]; 100 microM, macrophages) | antiviral effect of combination ([4]; in conjunction with zidovudine or didanosine, without concomitant increases in toxicity) | effect on growth rate [5] | safety via the Draize test [6] | reduction of corneal cystine crystals [7] | tolerability in chronic use [7] | inhibition at 5000 µM [8] [%]
1 | 2-aminoethanethiol [cysteamine] | reduced viral infection relative to the negative control | small percentage of infected cells that have a diminished nucleocapsid staining | 100 | ~5.30 | ~100 | non-cytotoxic | 100 | More than 90% | More than 90% | additive antiviral effect | no effect on growth rate | safe | effective in reducing the cystine crystals | well-tolerated | –
2 | CCC(CC)COC(=O)[C@H](C)N[P@](=O)(OC[C@H]1O[C@@](C#N)(c2ccc3c(N)ncnn23)[C@H](O)[C@@H]1O)Oc1ccccc1 [Remdesivir] | – | – | – | – | 100 | – | – | – | – | – | – | – | – | – | –
3 | NCCS [cysteamine HCl] | – | – | – | – | – | – | – | – | – | – | – | – | – | – | 85 to 95
